Test results published in the OligoGym collection.
Oligonucleotides are given in HELM: sugar(base)linkage, 5' to 3'; d 2'-deoxyribose, r ribose, m 2'-O-methylribose, p phosphate. ss, as = sense and antisense strand

target: Mmp7 (rat); assay: reporter assay of Huesken 2005; conditions: siRNA
Further: test concentration or dose not given here.

Substance	normalised inhibition (eCFP-eYFP dual reporter) [%]
RNA1{r(U)p.r(C)p.r(A)p.r(U)p.r(A)p.r(A)p.r(U)p.r(U)p.r(G)p.r(G)p.r(C)p.r(U)p.r(U)p.r(C)p.r(G)p.r(C)p.r(A)p.r(A)p.r(G)p.d(T)p.d(T)}|RNA2{r(C)p.r(U)p.r(U)p.r(G)p.r(C)p.r(G)p.r(A)p.r(A)p.r(G)p.r(C)p.r(C)p.r(A)p.r(A)p.r(U)p.r(U)p.r(A)p.r(U)p.r(G)p.r(A)p.d(T)p.d(G)}$$$RNA1{StrandType:ss}|RNA2{StrandType:as}$	75.5
RNA1{r(A)p.r(A)p.r(A)p.r(C)p.r(U)p.r(G)p.r(A)p.r(G)p.r(G)p.r(G)p.r(A)p.r(A)p.r(A)p.r(U)p.r(G)p.r(C)p.r(A)p.r(G)p.r(A)p.d(T)p.d(T)}|RNA2{r(U)p.r(C)p.r(U)p.r(G)p.r(C)p.r(A)p.r(U)p.r(U)p.r(U)p.r(C)p.r(C)p.r(C)p.r(U)p.r(C)p.r(A)p.r(G)p.r(U)p.r(U)p.r(U)p.d(G)p.d(T)}$$$RNA1{StrandType:ss}|RNA2{StrandType:as}$	116
RNA1{r(G)p.r(A)p.r(G)p.r(U)p.r(G)p.r(C)p.r(C)p.r(A)p.r(G)p.r(A)p.r(U)p.r(G)p.r(U)p.r(U)p.r(G)p.r(C)p.r(A)p.r(G)p.r(A)p.d(T)p.d(T)}|RNA2{r(U)p.r(C)p.r(U)p.r(G)p.r(C)p.r(A)p.r(A)p.r(C)p.r(A)p.r(U)p.r(C)p.r(U)p.r(G)p.r(G)p.r(C)p.r(A)p.r(C)p.r(U)p.r(C)p.d(C)p.d(A)}$$$RNA1{StrandType:ss}|RNA2{StrandType:as}$	104
RNA1{r(G)p.r(G)p.r(A)p.r(C)p.r(U)p.r(C)p.r(A)p.r(G)p.r(G)p.r(C)p.r(G)p.r(U)p.r(G)p.r(A)p.r(A)p.r(C)p.r(U)p.r(U)p.r(C)p.d(T)p.d(T)}|RNA2{r(G)p.r(A)p.r(A)p.r(G)p.r(U)p.r(U)p.r(C)p.r(A)p.r(C)p.r(G)p.r(C)p.r(C)p.r(U)p.r(G)p.r(A)p.r(G)p.r(U)p.r(C)p.r(C)p.d(T)p.d(C)}$$$RNA1{StrandType:ss}|RNA2{StrandType:as}$	70.4
RNA1{r(U)p.r(C)p.r(U)p.r(A)p.r(A)p.r(A)p.r(A)p.r(C)p.r(A)p.r(A)p.r(A)p.r(G)p.r(A)p.r(A)p.r(G)p.r(G)p.r(C)p.r(C)p.r(A)p.d(T)p.d(T)}|RNA2{r(U)p.r(G)p.r(G)p.r(C)p.r(C)p.r(U)p.r(U)p.r(C)p.r(U)p.r(U)p.r(U)p.r(G)p.r(U)p.r(U)p.r(U)p.r(U)p.r(A)p.r(G)p.r(A)p.d(G)p.d(T)}$$$RNA1{StrandType:ss}|RNA2{StrandType:as}$	95.7
RNA1{r(G)p.r(A)p.r(A)p.r(G)p.r(U)p.r(G)p.r(A)p.r(C)p.r(C)p.r(G)p.r(C)p.r(A)p.r(C)p.r(U)p.r(U)p.r(C)p.r(A)p.r(G)p.r(U)p.d(T)p.d(T)}|RNA2{r(A)p.r(C)p.r(U)p.r(G)p.r(A)p.r(A)p.r(G)p.r(U)p.r(G)p.r(C)p.r(G)p.r(G)p.r(U)p.r(C)p.r(A)p.r(C)p.r(U)p.r(U)p.r(C)p.d(T)p.d(C)}$$$RNA1{StrandType:ss}|RNA2{StrandType:as}$	40.5
RNA1{r(G)p.r(A)p.r(U)p.r(G)p.r(G)p.r(U)p.r(G)p.r(A)p.r(G)p.r(G)p.r(A)p.r(C)p.r(U)p.r(C)p.r(A)p.r(G)p.r(G)p.r(C)p.r(G)p.d(T)p.d(T)}|RNA2{r(C)p.r(G)p.r(C)p.r(C)p.r(U)p.r(G)p.r(A)p.r(G)p.r(U)p.r(C)p.r(C)p.r(U)p.r(C)p.r(A)p.r(C)p.r(C)p.r(A)p.r(U)p.r(C)p.d(C)p.d(G)}$$$RNA1{StrandType:ss}|RNA2{StrandType:as}$	61.8
RNA1{r(U)p.r(G)p.r(A)p.r(G)p.r(U)p.r(A)p.r(C)p.r(U)p.r(G)p.r(G)p.r(A)p.r(C)p.r(G)p.r(G)p.r(A)p.r(U)p.r(G)p.r(G)p.r(U)p.d(T)p.d(T)}|RNA2{r(A)p.r(C)p.r(C)p.r(A)p.r(U)p.r(C)p.r(C)p.r(G)p.r(U)p.r(C)p.r(C)p.r(A)p.r(G)p.r(U)p.r(A)p.r(C)p.r(U)p.r(C)p.r(A)p.d(T)p.d(C)}$$$RNA1{StrandType:ss}|RNA2{StrandType:as}$	63.1
RNA1{r(C)p.r(C)p.r(A)p.r(G)p.r(G)p.r(A)p.r(A)p.r(A)p.r(C)p.r(A)p.r(C)p.r(U)p.r(C)p.r(U)p.r(A)p.r(G)p.r(G)p.r(C)p.r(C)p.d(T)p.d(T)}|RNA2{r(G)p.r(G)p.r(C)p.r(C)p.r(U)p.r(A)p.r(G)p.r(A)p.r(G)p.r(U)p.r(G)p.r(U)p.r(U)p.r(U)p.r(C)p.r(C)p.r(U)p.r(G)p.r(G)p.d(C)p.d(C)}$$$RNA1{StrandType:ss}|RNA2{StrandType:as}$	33.8
RNA1{r(A)p.r(A)p.r(U)p.r(U)p.r(U)p.r(U)p.r(A)p.r(C)p.r(C)p.r(U)p.r(U)p.r(C)p.r(A)p.r(C)p.r(G)p.r(A)p.r(C)p.r(U)p.r(C)p.d(T)p.d(T)}|RNA2{r(G)p.r(A)p.r(G)p.r(U)p.r(C)p.r(G)p.r(U)p.r(G)p.r(A)p.r(A)p.r(G)p.r(G)p.r(U)p.r(A)p.r(A)p.r(A)p.r(A)p.r(U)p.r(U)p.d(T)p.d(C)}$$$RNA1{StrandType:ss}|RNA2{StrandType:as}$	76.1
RNA1{r(G)p.r(C)p.r(C)p.r(A)p.r(C)p.r(U)p.r(C)p.r(A)p.r(U)p.r(G)p.r(A)p.r(A)p.r(C)p.r(U)p.r(U)p.r(G)p.r(G)p.r(C)p.r(C)p.d(T)p.d(T)}|RNA2{r(G)p.r(G)p.r(C)p.r(C)p.r(A)p.r(A)p.r(G)p.r(U)p.r(U)p.r(C)p.r(A)p.r(U)p.r(G)p.r(A)p.r(G)p.r(U)p.r(G)p.r(G)p.r(C)p.d(A)p.d(A)}$$$RNA1{StrandType:ss}|RNA2{StrandType:as}$	62.2
RNA1{r(C)p.r(G)p.r(G)p.r(C)p.r(G)p.r(G)p.r(A)p.r(G)p.r(A)p.r(U)p.r(G)p.r(C)p.r(U)p.r(C)p.r(A)p.r(C)p.r(U)p.r(U)p.r(U)p.d(T)p.d(T)}|RNA2{r(A)p.r(A)p.r(A)p.r(G)p.r(U)p.r(G)p.r(A)p.r(G)p.r(C)p.r(A)p.r(U)p.r(C)p.r(U)p.r(C)p.r(C)p.r(G)p.r(C)p.r(C)p.r(G)p.d(A)p.d(G)}$$$RNA1{StrandType:ss}|RNA2{StrandType:as}$	118
RNA1{r(G)p.r(U)p.r(G)p.r(U)p.r(G)p.r(G)p.r(A)p.r(G)p.r(U)p.r(G)p.r(C)p.r(C)p.r(A)p.r(G)p.r(A)p.r(U)p.r(G)p.r(U)p.r(U)p.d(T)p.d(T)}|RNA2{r(A)p.r(A)p.r(C)p.r(A)p.r(U)p.r(C)p.r(U)p.r(G)p.r(G)p.r(C)p.r(A)p.r(C)p.r(U)p.r(C)p.r(C)p.r(A)p.r(C)p.r(A)p.r(C)p.d(C)p.d(T)}$$$RNA1{StrandType:ss}|RNA2{StrandType:as}$	93.9
RNA1{r(C)p.r(C)p.r(C)p.r(A)p.r(G)p.r(G)p.r(U)p.r(G)p.r(U)p.r(G)p.r(G)p.r(A)p.r(G)p.r(U)p.r(G)p.r(C)p.r(C)p.r(A)p.r(G)p.d(T)p.d(T)}|RNA2{r(C)p.r(U)p.r(G)p.r(G)p.r(C)p.r(A)p.r(C)p.r(U)p.r(C)p.r(C)p.r(A)p.r(C)p.r(A)p.r(C)p.r(C)p.r(U)p.r(G)p.r(G)p.r(G)p.d(C)p.d(T)}$$$RNA1{StrandType:ss}|RNA2{StrandType:as}$	60.7
RNA1{r(U)p.r(U)p.r(U)p.r(A)p.r(C)p.r(C)p.r(U)p.r(U)p.r(C)p.r(A)p.r(C)p.r(G)p.r(A)p.r(C)p.r(U)p.r(C)p.r(U)p.r(A)p.r(A)p.d(T)p.d(T)}|RNA2{r(U)p.r(U)p.r(A)p.r(G)p.r(A)p.r(G)p.r(U)p.r(C)p.r(G)p.r(U)p.r(G)p.r(A)p.r(A)p.r(G)p.r(G)p.r(U)p.r(A)p.r(A)p.r(A)p.d(A)p.d(T)}$$$RNA1{StrandType:ss}|RNA2{StrandType:as}$	110
RNA1{r(U)p.r(G)p.r(G)p.r(A)p.r(C)p.r(G)p.r(G)p.r(A)p.r(U)p.r(G)p.r(G)p.r(U)p.r(G)p.r(A)p.r(G)p.r(G)p.r(A)p.r(C)p.r(U)p.d(T)p.d(T)}|RNA2{r(A)p.r(G)p.r(U)p.r(C)p.r(C)p.r(U)p.r(C)p.r(A)p.r(C)p.r(C)p.r(A)p.r(U)p.r(C)p.r(C)p.r(G)p.r(U)p.r(C)p.r(C)p.r(A)p.d(G)p.d(T)}$$$RNA1{StrandType:ss}|RNA2{StrandType:as}$	52.5
RNA1{r(U)p.r(C)p.r(A)p.r(U)p.r(U)p.r(C)p.r(A)p.r(G)p.r(A)p.r(A)p.r(G)p.r(A)p.r(C)p.r(U)p.r(U)p.r(C)p.r(A)p.r(G)p.r(U)p.d(T)p.d(T)}|RNA2{r(A)p.r(C)p.r(U)p.r(G)p.r(A)p.r(A)p.r(G)p.r(U)p.r(C)p.r(U)p.r(U)p.r(C)p.r(U)p.r(G)p.r(A)p.r(A)p.r(U)p.r(G)p.r(A)p.d(T)p.d(C)}$$$RNA1{StrandType:ss}|RNA2{StrandType:as}$	54.7
RNA1{r(U)p.r(A)p.r(A)p.r(U)p.r(G)p.r(C)p.r(C)p.r(A)p.r(A)p.r(A)p.r(C)p.r(A)p.r(G)p.r(U)p.r(C)p.r(C)p.r(U)p.r(A)p.r(A)p.d(T)p.d(T)}|RNA2{r(U)p.r(U)p.r(A)p.r(G)p.r(G)p.r(A)p.r(C)p.r(U)p.r(G)p.r(U)p.r(U)p.r(U)p.r(G)p.r(G)p.r(C)p.r(A)p.r(U)p.r(U)p.r(A)p.d(G)p.d(T)}$$$RNA1{StrandType:ss}|RNA2{StrandType:as}$	105
RNA1{r(G)p.r(G)p.r(U)p.r(G)p.r(A)p.r(G)p.r(G)p.r(A)p.r(C)p.r(U)p.r(C)p.r(A)p.r(G)p.r(G)p.r(C)p.r(G)p.r(U)p.r(G)p.r(A)p.d(T)p.d(T)}|RNA2{r(U)p.r(C)p.r(A)p.r(C)p.r(G)p.r(C)p.r(C)p.r(U)p.r(G)p.r(A)p.r(G)p.r(U)p.r(C)p.r(C)p.r(U)p.r(C)p.r(A)p.r(C)p.r(C)p.d(A)p.d(T)}$$$RNA1{StrandType:ss}|RNA2{StrandType:as}$	94.6
RNA1{r(A)p.r(U)p.r(U)p.r(U)p.r(G)p.r(A)p.r(U)p.r(G)p.r(G)p.r(G)p.r(C)p.r(C)p.r(A)p.r(G)p.r(G)p.r(A)p.r(A)p.r(A)p.r(C)p.d(T)p.d(T)}|RNA2{r(G)p.r(U)p.r(U)p.r(U)p.r(C)p.r(C)p.r(U)p.r(G)p.r(G)p.r(C)p.r(C)p.r(C)p.r(A)p.r(U)p.r(C)p.r(A)p.r(A)p.r(A)p.r(U)p.d(G)p.d(G)}$$$RNA1{StrandType:ss}|RNA2{StrandType:as}$	10.5
